Data reported in ChEMBL document CHEMBL3580594, “Synthesis and biological evaluation of 4-substituted fluoronucleoside analogs for the treatment of hepatitis B virus infection” (J Med Chem, 2015).

Tests used:
[1] = Cytotoxicity against human HepG2.2.15 cells by MTT assay; type: cell-based, HepG2 2.2.15
[2] = system: Hepatitis B virus; experiment: Antiviral activity against Hepatitis B virus in HepG2.CW cells assessed as inhibition of viral DNA replication at 1 uM after 9 days by real-time FQ-PCR analysis; type: functional; settings: 216 h
[3] = system: Hepatitis B virus; experiment: Antiviral activity against Hepatitis B virus in HepG2.2.15 cells assessed as inhibition of intracellular viral DNA replication at 0.1 uM after 3 days by real-time FQ-PCR analysis; type: functional; settings: HepG2 2.2.15, 72 h
[4] = system: Hepatitis B virus; experiment: Antiviral activity against Hepatitis B virus in HepG2.2.15 cells assessed as inhibition of extracellular viral DNA replication at 0.1 uM after 3 days by real-time FQ-PCR analysis; type: functional; settings: HepG2 2.2.15, 72 h
[5] = system: Hepatitis B virus; experiment: Antiviral activity against Hepatitis B virus in HepG2.2.15 cells assessed as inhibition of intracellular viral DNA replication at 0.1 uM after 6 days by real-time FQ-PCR analysis; type: functional; settings: HepG2 2.2.15, 144 h
[6] = system: Hepatitis B virus; experiment: Antiviral activity against Hepatitis B virus in HepG2.2.15 cells assessed as inhibition of extracellular viral DNA replication at 0.1 uM after 6 days by real-time FQ-PCR analysis; type: functional; settings: HepG2 2.2.15, 144 h
[7] = system: Hepatitis B virus; experiment: Antiviral activity against Hepatitis B virus in HepG2.2.15 cells assessed as inhibition of intracellular viral DNA replication at 0.1 uM after 9 days by real-time FQ-PCR analysis; type: functional; settings: HepG2 2.2.15, 216 h
[8] = system: Hepatitis B virus; experiment: Antiviral activity against Hepatitis B virus in HepG2.2.15 cells assessed as inhibition of extracellular viral DNA replication at 0.1 uM after 9 days by real-time FQ-PCR analysis; type: functional; settings: HepG2 2.2.15, 216 h
[9] = Cmax in Sprague-Dawley rat at 32 mg/kg, po; type: ADME, organism-based; design: dose 32 mg/kg, route oral; settings: in vivo
[10] = Oral bioavailability in Sprague-Dawley rat at 32 mg/kg; type: ADME, organism-based; settings: in vivo
[11] = system: Duck hepatitis B virus; experiment: Antiviral activity against duck Hepatitis B virus infected in duck assessed as inhibition of viral DNA replication in serum at 20 mg/kg/day, po treatment initiated at day 10 after infection relative to control; type: functional; settings: 240 h
[12] = system: Duck hepatitis B virus; experiment: Antiviral activity against duck Hepatitis B virus infected in duck assessed as inhibition of viral DNA replication in liver at 20 mg/kg/day, po treatment initiated at day 5 after infection relative to control; type: functional; settings: 120 h
[13] = system: Duck hepatitis B virus; experiment: Antiviral activity against duck Hepatitis B virus infected in duck assessed as inhibition of viral DNA replication in serum at 20 mg/kg/day, po treatment initiated at day 5 after infection relative to control; type: functional; settings: 120 h
[14] = system: Duck hepatitis B virus; experiment: Antiviral activity against duck Hepatitis B virus infected in duck assessed as inhibition of viral DNA replication in liver at 20 mg/kg/day, po measured after 3 days of treatment withdrawal; type: functional; settings: 72 h
[15] = system: Duck hepatitis B virus; experiment: Antiviral activity against duck Hepatitis B virus infected in duck assessed as inhibition of viral DNA replication in serum at 20 mg/kg/day, po measured after 3 days of treatment withdrawal; type: functional; settings: 72 h
[16] = Tmax in Sprague-Dawley rat at 32 mg/kg, po; type: ADME, organism-based; settings: in vivo
[17] = system: Duck hepatitis B virus; experiment: Antiviral activity against duck Hepatitis B virus infected in duck assessed as inhibition of viral DNA replication in liver at 20 mg/kg/day, po treatment initiated at day 10 after infection relative to control; type: functional; settings: 240 h
[18] = system: Hepatitis B virus; experiment: Antiviral activity against wild type Hepatitis B virus; type: functional, organism-based
[19] = system: Rattus norvegicus; experiment: In vivo drug formation in rat urine sample treated with 1-((2R,3S,4R,5R)-5-Azido-3-fluoro-4-hydroxy-5-(hydroxymethyl)tetrahydrofuran-2-yl)-4-(cyclopropylamino)-pyrimidin-2(1H)-one by NMR spectrum; type: ADME, organism-based
[20] = system: Rattus norvegicus; experiment: In vivo drug formation in rat urine sample treated with 1-((2R,3S,4R,5R)-5-Azido-3-fluoro-4-hydroxy-5-(hydroxymethyl)tetrahydrofuran-2-yl)-4-(cyclopropylamino)-pyrimidin-2(1H)-one by LC-MS/MS analysis; type: ADME, organism-based
[21] = system: Hepatitis B virus; experiment: Antiviral activity against lamivudine-resistant Hepatitis B virus; type: functional, organism-based
[22] = system: Rattus norvegicus; experiment: In vivo drug formation in rat plasma sample treated with 1-((2R,3S,4R,5R)-5-Azido-3-fluoro-4-hydroxy-5-(hydroxymethyl)tetrahydrofuran-2-yl)-4-(cyclopropylamino)-pyrimidin-2(1H)-one by LC-MS/MS analysis; type: ADME, organism-based
[23] = system: Rattus norvegicus; experiment: In vivo drug formation in rat bile sample treated with 1-((2R,3S,4R,5R)-5-Azido-3-fluoro-4-hydroxy-5-(hydroxymethyl)tetrahydrofuran-2-yl)-4-(cyclopropylamino)-pyrimidin-2(1H)-one by LC-MS/MS analysis; type: ADME, organism-based

With `CCNc1ccn([C@@H]2O[C@@](CO)(N=[N+]=[N-])[C@@H](O)[C@@H]2F)c(=O)n1` the CC50 [1] was > 125 µM and the inhibition at 1 µM [2] was 78%.

Molecule `C=C1[C@H](CO)[C@@H](O)C[C@@H]1n1cnc2c(=O)[nH]c(N)nc21` has an inhibition at 0.1 µM [3] of 37.8%, a CC50 [1] of 30 µM and an inhibition at 0.1 µM [4] of 38.2%. The inhibition at 0.1 µM [5] was 40.6%, the inhibition at 0.1 µM [6] was 47.8% and the inhibition at 0.1 µM [7] was 57.6%. The inhibition at 0.1 µM [8] was 78.6% and the inhibition at 1 µM [2] was 95.7%.

In the case of `CNc1ccn([C@@H]2O[C@@](CO)(N=[N+]=[N-])[C@@H](O)[C@@H]2F)c(=O)n1`, the CC50 [1] is reported as > 125 µM and the inhibition at 1 µM [2] is reported as 81.1%.

With `CCC(C)Nc1ccn([C@@H]2O[C@@](CO)(N=[N+]=[N-])[C@@H](O)[C@@H]2F)c(=O)n1` (stereo not given in full) the CC50 [1] was > 125 µM and the inhibition at 1 µM [2] was 61.7%.

`Nc1ccn([C@@H]2CS[C@H](CO)O2)c(=O)n1` [LAMIVUDINE] gave a Cmax [9] of 274 ng/mL, a bioavailability [10] of 18.7% and an inhibition in vivo at 20 mg/kg/day [11] of 82.2%. The inhibition in vivo at 20 mg/kg/day [12] was 52.7%, the inhibition in vivo at 20 mg/kg/day [13] was 88.6% and the inhibition in vivo at 20 mg/kg/day [14] was 76.2%. It also gave an inhibition in vivo at 20 mg/kg/day [15] of 79.3%, a Tmax [16] of 5 h and an inhibition in vivo at 20 mg/kg/day [17] of 84%.

With `CCN(CC)c1ccn([C@@H]2O[C@@](CO)(N=[N+]=[N-])[C@@H](O)[C@@H]2F)c(=O)n1` the CC50 [1] was > 125 µM and the inhibition at 1 µM [2] was 7.1%.

For `[N-]=[N+]=N[C@]1(CO)O[C@@H](n2ccc(NC3CCCC3)nc2=O)[C@@H](F)[C@@H]1O`, the CC50 [1] was > 125 µM and the inhibition at 1 µM [2] was 37.3%.

In the case of `[N-]=[N+]=N[C@]1(CO)O[C@@H](n2ccc(NC3CCCCC3)nc2=O)[C@@H](F)[C@@H]1O`, the CC50 [1] is reported as > 125 µM and the inhibition at 1 µM [2] is reported as 23.6%.

For `[N-]=[N+]=N[C@]1(CO)O[C@@H](n2ccc(=O)[nH]c2=O)[C@@H](F)[C@@H]1O`, the CC50 [1] was > 125 µM and the inhibition at 1 µM [2] was 75.5%.

With `[N-]=[N+]=N[C@]1(CO)O[C@@H](n2ccc(N)nc2=O)[C@@H](F)[C@@H]1O` [RO-0622] the EC50 [18] was 0.12 µM, the Drug metabolism [19] was “metabolite_detected” and the Drug metabolism [20] was “metabolite_detected”. For the same molecule, the EC50 [21] was 0.27 µM.

With `[N-]=[N+]=N[C@]1(CO)O[C@@H](n2ccc(NC3CC3O)nc2=O)[C@@H](F)[C@@H]1O` (stereo not given in full) the Drug metabolism [22] was “metabolite_detected”, the Drug metabolism [20] was “metabolite_detected” and the Drug metabolism [23] was “metabolite_detected”.

In the case of `CC(C)Nc1ccn([C@@H]2O[C@@](CO)(N=[N+]=[N-])[C@@H](O)[C@@H]2F)c(=O)n1`, the CC50 [1] is reported as > 125 µM and the inhibition at 1 µM [2] is reported as 43.7%.

For `[N-]=[N+]=N[C@]1(CO)O[C@@H](n2ccc(N3CCCC3)nc2=O)[C@@H](F)[C@@H]1O`, the CC50 [1] was > 125 µM and the inhibition at 1 µM [2] was 33.1%.

With `CN(C)c1ccn([C@@H]2O[C@@](CO)(N=[N+]=[N-])[C@@H](O)[C@@H]2F)c(=O)n1` the CC50 [1] was > 125 µM and the inhibition at 1 µM [2] was 43.6%.

For `[N-]=[N+]=N[C@]1(CO)O[C@@H](n2ccc(NC3C(O)C3O)nc2=O)[C@@H](F)[C@@H]1O` (stereo not given in full), the Drug metabolism [20] was “metabolite_detected”.
